Laboratory results taken from US6362216B1, “Compounds which inhibit tryptase activity” (Array Biopharma Inc., priority 1998, dated 2002).
pKi: −log10 of the molar value.

Key:
Type in all cases: biochemical
[1] = biological target: T1, Human plasma factor Xa (Homo sapiens, UniProt P00742); experiment: Human plasma factor Xa inhibition, N-Benzoyl-Ile-Glu-Gly-Arg-pNA substrate; conditions: 50 mM Tris-HCl, pH 7.8, 200 mM NaCl, 0.05% BSA
T1 construct: from tissue; host or cells: human plasma
Experimental: (§1) Protease inhibition was assayed according to published procedures with minor modifications using various proteases and specific chromogenic peptide p-nitroanilide substrates. Assays were performed in Costar ultra-low cluster 96-well microtiter plate (Costar Corning Corp., Cambridge Mass.). Each protease was incubated with various concentrations of the test compound for 15 min. at 37° C. or as otherwise indicated, in specific assay buffer, and the residual activity was then measured by addition of the substrate. p-Nitroaniline produced by the proteolysis was determined by measuring the change in absorbance at 405 nm on a SpectraMAX 340 plate reader (Molecular devices, Sunnyvale, Calif.).
(§2) 1. The inhibition constant, Ki is calculated from individual data points using the equation for a tight-binding inhibitor (See Beith, “Proteinase Inhibitors-Proceedings of 2nd Int. Res. Conference”, Fritz, et al. eds., New York, p.4463-4469 (1974)): […]
(§3) 2. Other inhibition data (Ki>>[E]o), the Ki is calculated from using the equations for a competitive inhibitor: [formula] […]
Human plasma factor Xa activity was determined by using N-Benzoyl-Ile-Glu-Gly-Arg-pNA in 50 mM Tris-HCl, pH 7.8, 200 mM NaCl, 0.05% BSA (See Lottenberg, et al. Meth. Enzymol. 80, 341-361 (1981)).
(§4) The inhibition constant (Ki) of the test compounds against each proteolytic enzyme was determined according to Zitnik et al., Biochem. Biophys. […]

[2] = biological target: T2, Human Neutrophil Cathepsin G (Homo sapiens, UniProt P08311); experiment: Human neutrophil cathepsin G inhibition, N-Suc-Ala-Ala-Pro-Phe-pNA substrate; conditions: 625 mM Tris-HCl, pH 7.5, 2.5 mM MgCl2, 0.125% Brij 35
T2 construct: from tissue; host or cells: human neutrophils
T2 sequence (P08311 21-244): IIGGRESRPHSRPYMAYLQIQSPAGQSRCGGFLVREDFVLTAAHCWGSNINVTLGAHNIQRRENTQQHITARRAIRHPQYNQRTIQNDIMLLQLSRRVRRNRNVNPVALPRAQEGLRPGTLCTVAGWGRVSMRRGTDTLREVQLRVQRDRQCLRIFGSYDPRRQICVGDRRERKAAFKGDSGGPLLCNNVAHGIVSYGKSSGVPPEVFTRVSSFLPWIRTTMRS
Experimental: as §1
(§5) 1. The inhibition constant, Ki is calculated from individual data points using the equation for a tight-binding inhibitor (See Beith, “Proteinase Inhibitors-Proceedings of 2nd Int. Res. Conference”, Fritz, et al. eds., New York, p.4463-4469 (1974)):
(§6) The Ki values are obtained by correcting Ki ′ values for the effect of substrate concentration according to: [formula]
as §3
Human Neutrophil Cathepsin G activity was determined by using N-Suc-Ala-Ala-Pro-Phe-pNA in 625 mM Tris-HCl, pH 7.5, 2.5 mM MgCl2, 0.125% Brij 35 (See Groutas et al., Arch. Biochem. Biophys. 294, 144-146 (1992)). […]

[3] = biological target: T3, Human plasma thrombin (Homo sapiens, UniProt P00734); experiment: Human plasma thrombin inhibition, H-D-Phe-Pip-Arg-pNA substrate; conditions: the 5th table, unit inferred
T3 construct: from tissue; host or cells: human plasma
Experimental: as §1, §5, §6
2. Other inhibition data (Ki>>[E]o), the Ki is calculated from using the equations for a competitive inhibitor: [formula]
Human plasma thrombin activity was determined by using H-D-Phe-Pip-Arg-pNA in 50 mM Tris-HCl, pH 8.3, 100 mM NaCl, 1% BSA (See Lottenberg, et al., Meth. Enzymol. 80, 341-361 (1981)).
The inhibition constant (Ki) of the test compounds against each proteolytic enzyme was determined according to Zitnik et al., Biochem. Biophys. Res. Commun. 232, 687-697 (1997)).

[4] = biological target: T4, Bovine Pancreatic Chymotrypsin (Bos taurus, UniProt P00766); experiment: Bovine pancreatic chymotrypsin inhibition, N-Suc-Ala-Ala-Pro-Phe-pNA substrate; conditions: 100 mM Tris-HCl, pH 7.8, 10 mM CaCl2
T4 construct: from tissue; host or cells: bovine pancreas
Experimental: as §1, §2, §3
Bovine Pancreatic Chymotrypsin activity was determined by using N-Suc-Ala-Ala-Pro-Phe-pNA in 100 mM Tris-HCl, pH 7.8, 10 mM CaCl2 (See Delmar, et al., J. Biochem. 85, 157-162 (1979)).
as §4

[5] = biological target: T5, Human Neutrophil elastase (Homo sapiens, UniProt P08246); experiment: Human neutrophil elastase inhibition, pyroGlu-Pro-Val-pNA substrate; conditions: 100 mM Tris-HCl, pH 8.3, 0.96 M NaCl, 1% BSA
T5 construct: from tissue; host or cells: human neutrophils
T5 sequence (P08246 30-267): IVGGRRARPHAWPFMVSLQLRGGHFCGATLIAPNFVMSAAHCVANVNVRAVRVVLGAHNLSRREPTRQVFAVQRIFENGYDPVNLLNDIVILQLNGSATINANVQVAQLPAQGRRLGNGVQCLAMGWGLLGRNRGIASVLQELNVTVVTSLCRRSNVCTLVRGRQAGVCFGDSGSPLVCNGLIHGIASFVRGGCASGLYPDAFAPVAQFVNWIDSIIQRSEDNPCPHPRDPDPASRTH
Experimental: as §1, §2, §3
Human Neutrophil elastase activity was determined by using pyroGlu-Pro-Val-pNA in 100 mM Tris-HCl, pH 8.3, 0.96 M NaCl, 1% BSA (See Kramps, et al. Scand. J. Clin. Lab. Invest. 43, 427-432 (1983)).
as §4

T1 sequence (P00742 235-488 limits assumed): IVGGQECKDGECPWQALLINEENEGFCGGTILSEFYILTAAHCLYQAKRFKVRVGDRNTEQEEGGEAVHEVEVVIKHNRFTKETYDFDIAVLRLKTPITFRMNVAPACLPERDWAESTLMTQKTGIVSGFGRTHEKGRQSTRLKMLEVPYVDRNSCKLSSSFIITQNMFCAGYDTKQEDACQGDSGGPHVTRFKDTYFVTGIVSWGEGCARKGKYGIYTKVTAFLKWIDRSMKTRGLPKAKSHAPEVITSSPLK
T1 sequence (P00742 41-179 partner limits assumed): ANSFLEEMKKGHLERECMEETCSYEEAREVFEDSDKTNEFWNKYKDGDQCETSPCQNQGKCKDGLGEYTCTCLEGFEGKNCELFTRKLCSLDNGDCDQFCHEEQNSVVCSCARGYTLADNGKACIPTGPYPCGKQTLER

pKi [1]: 4.75
pKi [2]: < 4.00
pKi [3]: 4.59
pKi [4]: < 4.00
pKi [5]: < 4.00
Structure (SMILES): Cc1cc2cc(CNC(=O)Cc3cc4cc(C(=N)N)ccc4s3)ccc2[nH]1 [drawing 17 Benzthiophene 5-carboxamidine n=1]
